Values of other authors, collected in publication PMC2912417 (Biochemistry, 2010).
Read-outs that look alike come from different tables or passages of the source.

What was measured:
[1] = test system: Aβ42-induced toxicity
[2] = peptide alone

Substance: KGAIIGLMVGGVVIA [Aβ(28–42)]
- Toxicity of the peptide itself ([1]; cell-viability screen): highly toxic itself

Substance: LMVGGVV [Aβ(34–40)]
- Inhibition of Aβ42-induced toxicity ([1]; cell-viability screen under similar conditions): inactive

Substance: IGLMVGGVVIA [Aβ(32–42)]
- Aggregation / fibril formation of the peptide itself [2]: predominantly amorphous, rather than fibrillar, aggregates
- Toxicity of the peptide itself [1]: slightly toxic itself
